Measurements taken from patent US4599331A, “Etianic acids as antiangiogenics” (Syntex (U.S.A.) Inc., priority 1984, dated 1986).
Several values for one entry are separate records, joined by “and”; a condition that tells them apart may be missing. Identical values can stand only once.

Key:
[1] = system: alkaline phosphatase (APb); assay: alkaline phosphatase (APb) induction in LE II cells; type: cell-based, mouse; settings: Mus musculus, Table 1, about 65 hours, relative to dexamethasone = 1, read-out: Efficacy (DEX = 1) Alk P
Experimental: This is another standard test for glucocorticoid activity.
LE II cells were grown in DMEM plus 10% FCS, at 37° C., in a 10% carbon dioxide atmosphere. Confluent monolayers of cells were trypsinized and seeded at a 1:15 dilution into 6-well Costar cluster dishes. […] In all experiments, DEX, at concentrations of 10^-9 to 10^-6 M, was added to some of the wells as a positive control.
Cell monolayers were washed with PBS and harvested by scraping with a rubber policeman into 400 μl of a buffer of 20 mM Tris-HCl at pH 7.4; 2 mM MgCl2; and 150 mM NaCl together with 1% Triton X-100. Samples were transferred into 1.5 ml Eppendorf centrifuge tubes and placed on ice. The tubes were first vortexed and then centrifuged in the Eppendorf minicentrifuge for 2 minutes. Duplicate 100 μl aliquots of supernatant were placed into 12×75 mm glass test tubes for determination of APb activity, while the rest was saved for protein determination. […] The tubes were incubated in a 37° C. water bath for between 20 to 50 minutes, depending on the activity of the samples. The APb reaction was terminated by the addition of 0.5 ml of […]. The tubes were mixed and 200 μl portions from each tube were transferred in triplicate to a 96 well microtiter plate. The OD410 nm of each well was then determined using a Dynatech plate reader.
[…] of the cell supernatant were transferred to 96 well microtiter plates for protein determination by a modification of the Lowry method. […] The plates were shaken for 1 hour and then the OD630 was determined using a Dynatech plate reader. The protein content for each sample was calculated by comparing the average OD630 reading with those obtained for a bovine serum albumin standard curve.
The alkaline phosphatase activity of in each sample was expressed as μmoles product formed per minute per mg protein in the Alk P column of Tables 1 and 2. Results are expressed as the induction ability of a compound as compared to dexamethasone.

[2] = system: Hamster Melanoma RPM1 1846 tumor cells; assay: hamster cheek pouch (HCP) angiogenesis inhibition, 1846 tumor cell stimulus; type: in vivo, Male Syrian Golden hamsters; settings: Table 1; 3×10^5 tumor cells; between 0.5 and 4 mg/kg s.c. daily; each number independent result, average of six animals
Experimental: Each compound of the series was also tested for anti-angiogenic activity by an in vivo test that measured vascularization in a hamster's cheek pouch in response to either an angiogenic polypeptide growth factor, epidermal growth factor (EGF) or an induced […].
(§1) In this example, the in vivo angiogenesis inhibition activity of etianic acid esters was tested. Male Syrian Golden hamsters, weighing between 120 g and 150 g were anaesthetized by intraperitoneal (I.P.) injection of a rodent anaesthetic mixture consisting of 50 mg/kg ketamine hydrochloride, 5 mg/kg xylazine and 1 mg/kg acepromazine. The left cheek pouch of each animal was everted with a pincet and pinned down to a plexiglass-rubber stage and observed through a Zeiss stereomicroscope. 10 μg of EGF or 3×10^5 Hamster Melanoma RPM1 1846 tumor cells in 10 μl Cibachrome Blue agarose (Amicon) were injected subcutaneously in the left lower quadrant of the pouch with a Hamilton syringe.
(§2) The pouch was then reinserted and animals were kept under observation until recovered from anaesthesia.
The animals were dosed daily with one test compound, starting one day before stimulus injection and continuing until observation. The test compounds were dissolved in a minimum volume of ethanol and diluted in sterile phosphate buffer solution. […]
(§3) Either five days or twelve days after the EGF or tumor cell injection, animals were anaesthetized by I.P. injection of the rodent anaesthetic mixture. The pouch was everted on the stage and examined under the stereomicroscope. Pictures were taken with a 35 mm using Kodak Tungsten 50 professional films.
(§4) The following subjective scoring was used for evaluating the photographs:
(§5) 1: minimal branching of vessels in the vicinity of injection site.
(§6) 2: new vessels reach injection site, area involved is minimal (<50% of area surrounding injection site).
(§7) 3: many vessels reach and cross injection site, new vessels are tortuous, (>50% of area surrounding injection site).
(§8) 4: "full blown", many tortuous vessels, leakages, hemorrhages, 100% of area around injection site, invasion of new vessels into non-injected areas.
(§9) In the case of the tumor, tumor size was also determined. (See Table 4)
(§10) Results are expressed as the mean of the score. The results are shown in Tables 1 and 2 are percent inhibition of HCP Stimulus.

[3] = system: Hamster Melanoma RPM1 1846 tumor cells; assay: Inhibition of tumor growth (2 week assay); type: in vivo, Male Syrian Golden hamsters; settings: Table 3, dose 0.8 mg/kg
Experimental: as §1, §2
The animals were dosed daily with one test compound, starting one day before stimulus injection and continuing until observation. The test compounds were dissolved in a minimum volume of ethanol and diluted in sterile phosphate buffer solution. Then between 0.5 and 4 mg/kg of the test compound was injected subcutaneously.
as §3, §4, §5, §6, §7, §8, §9, §10

Structure (SMILES) | Emax [1] | % Inhibition HCP Stimulus 1846 [2] | Angiogenesis % Inh. [3] | Tumor area % (inhibition of tumor growth) [3] | Angiogenesis score ([3]; mean of score 0 (no new vessels) to 4 (full blown), untreated 3.1 [A], 2.9 [B]) | Tumor area Mn (mm^2) ([3]; untreated 40.7 ± 16.2 [A], 27.5 ± 15.3 [B])
CCC(=O)O[C@]1(C(=O)OC)[C@@H](C)C[C@H]2[C@@H]3CCC4=CC(=O)C=C[C@]4(C)[C@@]3(F)[C@@H](O)C[C@@]21C [compound 1] | 100% | 40% | – | – | – | –
CCC(=O)O[C@]1(C(=O)OC)[C@@H](C)C[C@H]2[C@@H]3CC(F)C4=C(F)C(=O)C=C[C@]4(C)[C@@]3(F)[C@@H](O)C[C@@]21C (stereo partly drawn) [compound 3] | 100% | 70% | – | – | – | –
CCCC(=O)O[C@]1(C(=O)OC)[C@@H](C)C[C@H]2[C@@H]3CC(F)C4=CC(=O)C=C[C@]4(C)[C@@]3(F)[C@@H](O)C[C@@]21C (stereo partly drawn) [compound 4] | 170% | 26% | – | – | – | –
CCC(=O)O[C@]1(C(=O)OC)[C@H](C)C[C@H]2[C@@H]3CC(F)C4=CC(=O)C=C[C@]4(C)[C@@]3(F)[C@@H](O)C[C@@]21C (stereo partly drawn) [compound 7] | 110% | – | – | – | – | –
CCC(=O)O[C@]1(C(=O)OC)[C@H](C)C[C@H]2[C@@H]3CC(F)C4=C(F)C(=O)C=C[C@]4(C)[C@@]3(F)[C@@H](O)C[C@@]21C (stereo partly drawn) [compound 8] | 120% | 41% and 58% and 75% | – | – | – | –
CCCC(=O)O[C@]1(C(=O)OC)[C@H](C)C[C@H]2[C@@H]3CC(F)C4=CC(=O)C=C[C@]4(C)[C@@]3(F)[C@@H](O)C[C@@]21C (stereo partly drawn) [compound 9] | 90% | 32% | 29% | 86% | 2.2 | 5.7 ± 5.9 mm^2
